Laboratory results: patent publication US20050203056A1, “Carboxyl-reduced derivatives of hyaluronic acid, preparation thereof, use thereof as a medicinal product and the pharmaceutical compositions containing them” (Aventis Pharma S.A., priority 2003, published 2005)

Assays:
aggrecanase = assay: Effect on the aggrecanase in synovial fluids or on preparations of recombinant ADAMTS protein (BC-3 ELISA, Agg1mut substrate); assay type: biochemical
Protocol: Effect of the carboxyl-reduced derivatives on the aggrecanase in synovial fluids or on preparations of recombinant ADAMTS protein.
The analysis is carried out on 96-well plates.
In each well, a fixed volume of synovial fluid or aggrecanase activity generating a known increase, between 1.0 and 1.4 absorbance units (405 nm), under the conditions of the analysis, is mixed with 3 μl of solution of compound from the respective dilution step. Dulbecco's modified Eagle's medium (DMEM) is added to each well to give a final volume of 300 μl. The plate is then incubated for 1 hour at 37° C. in a carbon dioxide atmosphere.
After the addition of 5 μl of a solution of […] of recombinant substrate Agglmut in DMEM to each well (substrate as described by Bartnik E. et al., EP 785274, 1997), the reagent mixture is incubated for 4 hours at 37° C. under a carbon dioxide atmosphere.
In a first step, the microplate is coated with 100 μl per well of a commercial goat anti-mouse IgG antibody for 1 hour at ambient temperature (5 μg/ml in a phosphate buffered saline solution, pH 7.4 [PBS buffer]). After washing with the PBS buffer containing 0.1% of Tween-20 (washing buffer), the wells are blocked by means of a step consisting of a one hour incubation with 100 μl per well of 5% bovine serum albumin in a PBS buffer containing 0.05% of Tween-20. Following another rinse with the washing buffer, each well is incubated with 100 μl of a solution, diluted to 1:1000, of BC-3 antibody in a PBS buffer containing 0.05% of Tween 20 and 0.5% of bovine serum albumin, at ambient temperature for one hour. This antibody recognizes the typical aggrecanase cleavage fragments (Hughes C. E. et al., Biochem. J. 305 (3), 799-804, 1995).
After another rinse of the analytical plate with the washing buffer, the complete set of mixtures originating from the preceding digestion is transferred to this plate, well by well, and incubated at ambient temperature for one hour. The plate is again washed as above. Next, 100 μl of the second antibody (anti-human IgG antibody labeled with peroxidase, 1:1000 in PBS containing 0.5% of BSA and 0.05% of Tween-20) are added to each well, with subsequent incubation at ambient temperature again for one hour. After a final rinse with the washing buffer, the color development is initiated by adding 100 μl of ABTS substrate solution (2 mg/ml, 2,2′-azinobis(3-ethyl-benzothiazoline)sulfonic acid) in 40 mM of sodium citrate plus 60 mM of disodium hydrogen phosphate, adjusted to a pH of 4.4 by adding acetic acid; 0.25 μl of 35% hydrogen peroxide added per ml immediately before measurement). […] The development is stopped as soon as the maximum signal (405 nm) in the absorbance range of 1.0 to 1.4 is reached.

bovine factor Xa [1] = target: T1, bovine factor Xa (Bos taurus, UniProt P00743); conditions: calibrated against Enoxaparin
Protocol: For the calibration, a standard sample of low molecular weight heparin (Enoxaparin) was used as reference.
The serial dilutions of the assay compound are prepared in a 0.046 M Tris buffer, pH 8.4, containing 0.15 M NaCl, 0.007 M EDTA, 0.1% of Tween 80 and 0.12 IU/ml of human antithrombin III. The samples of 50 μl of the respective dilutions are incubated with 50 μl of bovine factor Xa (13.6 U/ml) at 37° C. for 80 seconds. Next, 50 μl of chromogenic substrate, 1.1 mM S-2765, are added. […] The activity of the deblocked factor Xa is indicated by the emission of p-nitroaniline from the substrate.

[2] = target: T2, human neutrophil elastase (Homo sapiens, UniProt P08246)
T2 sequence (P08246 30-267): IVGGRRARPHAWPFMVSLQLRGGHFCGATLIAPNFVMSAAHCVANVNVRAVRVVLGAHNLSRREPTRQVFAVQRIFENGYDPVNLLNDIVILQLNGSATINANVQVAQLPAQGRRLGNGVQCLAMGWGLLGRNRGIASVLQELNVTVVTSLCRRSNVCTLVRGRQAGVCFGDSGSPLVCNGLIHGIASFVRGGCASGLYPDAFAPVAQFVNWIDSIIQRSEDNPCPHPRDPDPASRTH
Protocol: A commercially available enzyme (for example, human neutrophil elastase, sigma No. E8140) is reconstituted in aliquots of 0.1 mg per vial with 0.276 ml of 50 mM sodium acetate buffer, pH 5.5, containing 200 mM NaCl (stock solution of the enzyme); 11 μl of this stock solution are diluted with 1.1 ml of the HEPES buffer above (enzyme assay solution).
The substrate solution is prepared by dissolving 118 mg of methoxy-succinyl-L-Ala-L-Ala-L-Pro-L-Val-p-nitro-anilide in 1 ml of DMSO (stock solution, for example sigma No. M4765). In view of the application in the analysis, 9 μl of stock solution are then diluted in 1.19 ml of water.
The serial dilutions of the assay compounds are prepared in 100 mM of HEPES buffer containing 500 mM NaCl. The analysis is carried out on colorless 96-well polystyrene microplates (for example, Corning Costar, No. 3695).
10 μl of assay enzyme solution are mixed with 10 μl of the respective diluted compound solution and 10 μl of the substrate solution. After incubation for 15 min, the cleavage of the substrate is read as increase in absorbance at 405 nm.

bovine factor Xa [3] = target: T1, bovine factor Xa; conditions: calibration reference; cited from earlier work

T1 sequence (P00743 234-492 limits assumed): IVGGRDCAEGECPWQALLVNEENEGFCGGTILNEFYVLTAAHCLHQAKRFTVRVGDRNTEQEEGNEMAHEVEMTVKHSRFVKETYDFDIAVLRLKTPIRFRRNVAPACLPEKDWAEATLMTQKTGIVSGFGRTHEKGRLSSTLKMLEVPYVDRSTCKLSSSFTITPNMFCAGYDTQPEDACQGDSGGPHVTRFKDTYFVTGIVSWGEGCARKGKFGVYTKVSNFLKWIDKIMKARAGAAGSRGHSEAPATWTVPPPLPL

Substance | IC50 (μg/ml) for inhibition (aggrecanase) | % conversion (aggrecanase; glycosaminoglycan 0.0001 μg/ml) [%] | % conversion (aggrecanase; glycosaminoglycan 0.001 μg/ml) [%] | % conversion (aggrecanase; glycosaminoglycan 0.01 μg/ml) [%] | % conversion (aggrecanase; glycosaminoglycan 0.1 μg/ml) [%] | % conversion (aggrecanase; glycosaminoglycan 1 μg/ml) [%] | % conversion (aggrecanase; glycosaminoglycan 10 μg/ml) [%] | factor Xa inhibitory activity (bovine factor Xa [1]) [U/mg] | IC50 [2] [µg/mL] | factor Xa inhibitory activity of the reference standard (bovine factor Xa [3]) [U/mg] | aggrecanase-inhibiting activity (aggrecanase)
Carboxyl-Reduced Hyaluronic Acid Sodium Salt [example 1] | no | 100 | 100 | 100 | 100 | 100 | 100 | – | – | – | –
Carboxyl-Reduced and Persulfated Hyaluronic Acid Sodium Salt [example 3] | 0.025 µg/mL | 93 | 84.9 | 54.3 | 28 | 27.4 | 21 | 1.75 | 7.0 | – | –
Enoxaparin | – | – | – | – | – | – | – | – | – | 100 | –
hyaluronic acid [reference compound] | – | – | – | – | – | – | – | – | – | – | no aggrecanase-inhibiting activity
